Reference: US12692254B2, “Benzimidazole inhibitors of PAD enzymes” (BRISTOL-MYERS SQUIBB COMPANY, priority 2018, dated 2026)

Target: human PAD4 (hPAD4) (Homo sapiens, UniProt Q9UM07)
Assay: RFMS human PAD4 functional assay (rapid-fire mass spectrum)
Assay type: biochemical
Details: 5 nM hPAD4 enzyme, 250 μM BAEE, 50 μM Calcium; 30 min preincubation, 90 min reaction at 37° C.
In short: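 PAD4 (10 nM) preincubated 30 min with compound (top final 50 μM), then BAEE substrate added in pH 7.5 HEPES buffer with DTT, 50 μM calcium, TPEN; 90 min at 37° C. After TCA quench, citrulline derivatized with phenyl glyoxal (4 mM final, 30 min, 37° C) and quantified by RapidFire MS against internal standard.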

Chain of human PAD4 (hPAD4) (Q9UM07 whole entry): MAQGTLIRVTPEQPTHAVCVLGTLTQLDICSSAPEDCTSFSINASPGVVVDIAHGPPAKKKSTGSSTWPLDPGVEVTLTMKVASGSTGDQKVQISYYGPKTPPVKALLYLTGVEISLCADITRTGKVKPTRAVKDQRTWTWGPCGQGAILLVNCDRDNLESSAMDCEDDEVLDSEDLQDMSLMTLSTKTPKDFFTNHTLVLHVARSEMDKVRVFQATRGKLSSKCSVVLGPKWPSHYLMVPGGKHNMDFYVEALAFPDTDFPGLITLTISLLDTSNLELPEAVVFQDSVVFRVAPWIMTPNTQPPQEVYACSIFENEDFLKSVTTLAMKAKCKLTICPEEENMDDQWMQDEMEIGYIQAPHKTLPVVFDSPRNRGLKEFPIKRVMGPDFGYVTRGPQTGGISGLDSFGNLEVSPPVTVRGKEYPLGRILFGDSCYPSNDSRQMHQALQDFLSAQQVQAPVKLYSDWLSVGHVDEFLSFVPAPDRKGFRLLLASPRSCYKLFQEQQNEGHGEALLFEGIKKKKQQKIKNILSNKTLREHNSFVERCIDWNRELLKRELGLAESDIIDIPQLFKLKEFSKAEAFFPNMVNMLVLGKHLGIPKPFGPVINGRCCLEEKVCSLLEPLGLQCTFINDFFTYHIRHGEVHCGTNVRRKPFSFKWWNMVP

IC50 [nM] | SMILES
14 | COc1cc(C(=O)N2C[C@H]3CC[C@@H]2[C@@H]3N)cc2nc(-c3cc4cccnc4n3CC3CC3)n(C[C@H]3CCN(c4cncc(C#N)c4)C3)c12 [Example 195, 5-[(3S)-3-({5-[(1R,4R,7R)-7-amino-2-azabicyclo[2.2.1]heptane-2-carbonyl]-2-[1-(cyclopropylmethyl)-1H-pyrrolo[2,3-b]pyridin-2-yl]-7-methoxy-1H-1,3-benzodiazol-1-yl}methyl)pyrrolidin-1-yl]pyridine-3-carbonitrile]
16 | COc1cc(C(=O)N2C[C@H]3CC[C@@H]2[C@@H]3N)cc2nc(-c3cc4ccccc4n3CC3CC3)n(C[C@H]3CCN(c4cncc(C#N)n4)C3)c12 [Example 196, 6-[(3S)-3-({5-[(1R,4R,7R)-7-amino-2-azabicyclo[2.2.1]heptane-2-carbonyl]-2-[1-(cyclopropylmethyl)-1H-indol-2-yl]-7-methoxy-1H-1,3-benzodiazol-1-yl}methyl)pyrrolidin-1-yl]pyrazine-2-carbonitrile]
21 | COc1cc(C(=O)N2C[C@H]3CC[C@@H]2[C@@H]3N)cc2nc(-c3cc4cccnc4n3CC3CC3)n(C[C@H]3CCN(c4nccnc4C#N)C3)c12 [Example 202, 3-[(3S)-3-({5-[(1R,4R,7R)-7-amino-2-azabicyclo[2.2.1]heptane-2-carbonyl]-2-[1-(cyclopropylmethyl)-1H-pyrrolo[2,3-b]pyridin-2-yl]-7-methoxy-1H-1,3-benzodiazol-1-yl}methyl)pyrrolidin-1-yl]pyrazine-2-carbonitrile]
23 | COc1cc(C(=O)N2C[C@H]3CC[C@@H]2[C@@H]3N)cc2nc(-c3cc4cccnc4n3CC3CC3)n(C[C@H]3CCN(c4cncc(C#N)n4)C3)c12 [Example 203, 6-[(3S)-3-({5-[(1R,4R,7R)-7-amino-2-azabicyclo[2.2.1]heptane-2-carbonyl]-2-[1-(cyclopropylmethyl)-1H-pyrrolo[2,3-b]pyridin-2-yl]-7-methoxy-1H-1,3-benzodiazol-1-yl}methyl)pyrrolidin-1-yl]pyrazine-2-carbonitrile]
35 | COc1cc(C(=O)N2C[C@H]3CC[C@@H]2[C@@H]3N)cc2nc(-c3cc4cccnc4n3CC3CC3)n(C[C@H]3CCN(c4ccnc(C#N)n4)C3)c12 [Example 204, 4-[(3S)-3-({5-[(1R,4R,7R)-7-amino-2-azabicyclo[2.2.1]heptane-2-carbonyl]-2-[1-(cyclopropylmethyl)-1H-pyrrolo[2,3-b]pyridin-2-yl]-7-methoxy-1H-1,3-benzodiazol-1-yl}methyl)pyrrolidin-1-yl]pyrimidine-2-carbonitrile]
37 | COc1cc(C(=O)N2CC3CCC2[C@@H]3N)cc2nc(-c3cc4cccnc4n3CC3CC3)n(C[C@@H]3CCN(c4ccnc(C#N)n4)C3)c12 (stereo partly drawn) [Example 205, 4-[(3R)-3-({5-[(1R,4R,7R)-7-amino-2-azabicyclo[2.2.1]heptane-2-carbonyl]-2-[1-(cyclopropylmethyl)-1H-pyrrolo[2,3-b]pyridin-2-yl]-7-methoxy-1H-1,3-benzodiazol-1-yl}methyl)pyrrolidin-l-yl]pyrimidine-2-carbonitrile]
47 | COc1cc(C(=O)N2C[C@H]3CC[C@@H]2[C@@H]3N)cc2nc(-c3cc4cccnc4n3CC3CC3)n(C[C@H]3CCN(c4cncnc4C#N)C3)c12 [Example 206, 5-[(3S)-3-({5-[(1R,4R,7R)-7-amino-2-azabicyclo[2.2.1]heptane-2-carbonyl]-2-[1-(cyclopropylmethyl)-1H-pyrrolo[2,3-b]pyridin-2-yl]-7-methoxy-1H-1,3-benzodiazol-1-yl}methyl)pyrrolidin-1-yl]pyrimidine-4-carbonitrile]
57 | COc1cc(C(=O)N2C[C@H]3CC[C@@H]2[C@@H]3N)cc2nc(-c3cc4cccnc4n3CC3CC3)n(C[C@@H]3CCN(c4cncc(C#N)n4)C3)c12 [Example 207, 6-[(3R)-3-({5-[(1R,4R,7R)-7-amino-2-azabicyclo[2.2.1]heptane-2-carbonyl]-2-[1-(cyclopropylmethyl)-1H-pyrrolo[2,3-b]pyridin-2-yl]-7-methoxy-1H-1,3-benzodiazol-1-yl}methyl)pyrrolidin-1-yl]pyrazine-2-carbonitrile]
25 | COc1cc(C(=O)N2C[C@H]3CC[C@@H]2[C@@H]3N)cc2nc(-c3cc4cccnc4n3CC3CC3)n(C[C@H]3CCN(c4ccnc(C)n4)C3)c12 [Example 208, ((1R,4R,7R)-7-amino-2-azabicyclo[2.2.1]heptan-2-yl)(2-(1-(cyclopropylmethyl)-1H-pyrrolo[2,3-b]pyridin-2-yl)-7-methoxy-1-(((S)-1-(2-methylpyrimidin-4-yl)pyrrolidin-3-yl)methyl)-1H-benzo[d]imidazol-5-yl)methanone]

Continued, compound first:

SMILES | IC50 [nM]
COC(=O)N1CC(n2c(-c3cc4cccnc4n3CC3CC3)nc3cc(C(=O)N4C[C@H]5CC[C@@H]4[C@@H]5N)cc(OC)c32)C1 [Example 188, methyl 3-{5-[(1R,4R,7R)-7-amino-2-azabicyclo[2.2.1]heptane-2-carbonyl]-2-[1-(cyclopropylmethyl)-1H-pyrrolo[2,3-b]pyridin-2-yl]-7-methoxy-1H-1,3-benzodiazol-1-yl}azetidine-1-carboxylate] | 393
COc1cc(C(=O)N2C[C@H]3CC[C@@H]2[C@@H]3N)cc2nc(-c3cc4cccnc4n3CC3CC3)n(C3CN(C(=O)c4ccncc4)C3)c12 [Example 189, (1R,4R,7R)-2-{2-[1-(cyclopropylmethyl)-1H-pyrrolo[2,3-b]pyridin-2-yl]-7-methoxy-1-[1-(pyridine-4-carbonyl)azetidin-3-yl]-1H-1,3-benzodiazol-5-carbonyl}-2-azabicyclo[2.2.1]heptan-7-amine] | 583
COc1cc(C(=O)N2C[C@H]3CC[C@@H]2[C@@H]3N)cc2nc(-c3cc4cccnc4n3CC3CC3)n(C3CN(C(=O)c4ccnc(O)c4)C3)c12 [Example 190, 4-(3-{5-[(1R,4R,7R)-7-amino-2-azabicyclo[2.2.1]heptane-2-carbonyl]-2-[1-(cyclopropylmethyl)-1H-pyrrolo[2,3-b]pyridin-2-yl]-7-methoxy-1H-1,3-benzodiazol-1-yl}azetidine-1-carbonyl)pyridin-2-ol] | 782
COc1cc(C(=O)N2C[C@H]3CC[C@@H]2[C@@H]3N)cc2nc(-c3cc4cccnc4n3CC3CC3)n(C3CN(C(C)=O)C3)c12 [Example 191, 1-(3-{5-[(1R,4R,7R)-7-amino-2-azabicyclo[2.2.1]heptane-2-carbonyl]-2-[1-(cyclopropylmethyl)-1H-pyrrolo[2,3-b]pyridin-2-yl]-7-methoxy-1H-1,3-benzodiazol-1-yl}azetidin-1-yl)ethan-1-one] | 884
COC(=O)N1CC(Cn2c(-c3cc4cccnc4n3CC3CC3)nc3cc(C(=O)N4CCC[C@@H](N)C4)cc(OC)c32)C1 [Example 192, methyl 3-({5-[(3R)-3-aminopiperidine-1-carbonyl]-2-[1-(cyclopropylmethyl)-1H-pyrrolo[2,3-b]pyridin-2-yl]-7-methoxy-1H-1,3-benzodiazol-1-yl}methyl)azetidine-1-carboxylate] | 1570
COc1cc(C(=O)N2C[C@H]3CC[C@@H]2[C@@H]3N)cc2nc(-c3cc4cccnc4n3CC3CC3)n(C3CN(C(=O)c4ccnc(F)c4)C3)c12 [Example 193, (1R,4R,7R)-2-{2-[1-(cyclopropylmethyl)-1H-pyrrolo[2,3-b]pyridin-2-yl]-1-[1-(2-fluoropyridine-4-carbonyl)azetidin-3-yl]-7-methoxy-1H-1,3-benzodiazole-5-carbonyl}-2-azabicyclo[2.2.1]heptan-7-amine] | 2720
COc1cc(C(=O)N2C[C@H]3CC[C@@H]2[C@@H]3N)cc2nc(-c3cc4cccnc4n3CC3CC3)n(CC3CCN(C(=O)c4ccnc(F)c4)CC3)c12 [Example 197, (1R,4R,7R)-2-{2-[1-(cyclopropylmethyl)-1H-pyrrolo[2,3-b]pyridin-2-yl]-1-{[1-(2-fluoropyridine-4-carbonyl)piperidin-4-yl]methyl}-7-methoxy-1H-1,3-benzodiazole-5-carbonyl}-2-azabicyclo[2.2.1]heptan-7-amine] | 117
COc1cc(C(=O)N2C[C@H]3CC[C@@H]2[C@@H]3N)cc2nc(-c3cc4cccnc4n3CC3CC3)n(CC3CCN(C(=O)c4ccnc(Cl)c4)CC3)c12 [Example 198, (1R,4R,7R)-2-(1-{[1-(2-chloropyridine-4-carbonyl)piperidin-4-yl]methyl}-2-[1-(cyclopropylmethyl)-1H-pyrrolo[2,3-b]pyridin-2-yl]-7-methoxy-1H-1,3-benzodiazole-5-carbonyl)-2-azabicyclo[2.2.1]heptan-7-amine] | 131
COc1cc(C(=O)N2C[C@H]3CC[C@@H]2[C@@H]3N)cc2nc(-c3cc4cccnc4n3CC3CC3)n(CC3CCN(C(=O)c4ccnc(C)n4)CC3)c12 [Example 199, (1R,4R,7R)-2-{2-[1-(cyclopropylmethyl)-1H-pyrrolo[2,3-b]pyridin-2-yl]-7-methoxy-1-{[1-(2-methylpyrimidine-4-carbonyl)piperidin-4-yl]methyl}-1H-1,3-benzodiazole-5-carbonyl}-2-azabicyclo[2.2.1]heptan-7-amine] | 162
COc1cc(C(=O)N2CC3CCC2[C@@H]3N)cc2nc(-c3cc4cccnc4n3CC3CC3)n(CC3CCN(C(=O)c4ccnc(C#N)c4)CC3)c12 (stereo partly drawn) [Example 200, 4-[4-({5-[(1R,4R,7R)-7-amino-2-azabicyclo[2.2.1]heptane-2-(cyclopropylmethyl)-1H-pyrrolo[2,3-b]pyridin-2-yl]-7-methoxy-1H-1,3-benzodiazol-1-yl}methyl)piperidine-1-carbonyl]pyridine-2-carbonitrile] | 198
COc1cc(C(=O)N2CC3CCC2C3N)cc2nc(-c3cc4cccnc4n3CC3CC3)n(CC3CCN(C(=O)c4ccc(C#N)cc4)C3)c12 [Example 201, 4-[(3S)-3-({5-[(1R,4R,7R)-7-amino-2-azabicyc1o[2.2.1]heptane-2-carbonyl]-2-[1-(cyclopropylmethyl)-1H-pyrrolo[2,3-b]pyridin-2-yl]-7-methoxy-1H-1,3-benzodiazol-1-yl}methyl)pyrrolidine-1-carbonyl]benzonitrile] | 18
